According to patent US6723897B2, “Methods for controlling gibberellin levels” (Monsanto Technology, LLC, priority 1998, dated 2004):

Tests used:
[1] = tested on: transgenic line 719 soybean; assay: Field trial of seed coatings under soil compaction / different soils, GA-deficient soybean; type: in vivo, Glycine max; conditions: for Count (emergence) / Dwarfs (number of dwarfs not rescued) / Dwarfs (number not rescued): Line 719
[2] = tested on: wild-type soybean line A3237; assay: Experiment II second greenhouse test, seed imbibition, wild-type soybean; type: in vivo, Glycine max; conditions: 0.25 mg/ml; seeds imbibed 6 hours
Method: (The compounds are tested in Experiment I at only one concentration, i.e., 0.25 mg/ml). Test tubes contained […] of ethanol solution per tube. Final volumes are made up to 30 ml with deionized water. After shaking, the treatment solutions (15 ml each) are transferred to each of two 50 ml test tubes. […] Twenty seeds are used in each treatment. Dry seed, ethanol/water-imbibed seed (1% ethanol in water, v/v), and water-imbibed seeds are included as controls. Seeds are imbibed for 6 hours in the test solutions, then planted in bread pans containing Metromix 350 (The Scotts Company, Marysville, Ohio), and covered with 0.5″ Metro-mix. Covered pans are transferred to the greenhouse and subirrigated. Illumination is at a light intensity of 300-400 μmolm^−2s^−1 photosynthetic photon flux; 16 hours light/8 hours dark. Subsequent waterings are also through sub-irrigation until the test is terminated three weeks later. Observations included the number of dwarf, intermediate, and tall plants; plant height; uniformity of rescue; and any visual effects. Digital photographs are also taken.

[3] = tested on: non-transgenic soybean line A4922; assay: Field trial of seed coatings under soil compaction / different soils, wild-type soybean; type: in vivo, Glycine max; conditions: for Count (emergence) / Height (total plant height): A4922
Method: The second trial (data reported in Tables 22-24) tested the precursors under conditions of soil compaction.
As noted above, the second trial tested the noted precursors under conditions of soil compaction. These experiments are performed in the same manner as in the first trial, except that the soil is compacted with an all-terrain vehicle.
“Height” equals total plant height in cm.

[4] = Distribution of 14C label in soybean plant parts after seed treatment
Method: ^14C-radiolabelled compounds are obtained from Lew Mander (Australian National University). ^14C-GA3 is dissolved in water:ethanol, 80:20, v/v; ^14C-GA9 and ^14C-GA12 are dissolved in 100% ethanol. Seeds of Asgrow 3237 soybeans are treated separately with solutions of each of the ^14C-radiolabelled compounds (1.7-6.8 μg; 10-40 ppm; 111,000-2,000,000 dpm/seed) by placing one to four μl of the dosing solution directly on the seed coat (^14C-GA3, GA9, and GA12), or on the hilum portion of the seed (^14C-GA3). After evaporation of the carrier solvent (approx. one hour), the treated seed is planted in containers containing approximately 30 gm of Metromix-350, and transferred to a growth chamber. Plants are grown under a 12 hour light/12 hour dark regime at 92° F. (33° C.)and 75% humidity. The pattern of uptake and translocation of ^14C-radioactivity in treated seed is monitored up to 12 days past initial treatment. For most experiments, three replicate plants are harvested at one hour after treatment, one day after treatment (DAT), two DAT, three DAT, six or seven DAT, and 12 DAT. At the time of each harvest, plants are divided into leaves, epicotyl, cotyledon, hypocotyl, and roots. The level of ^14C-radioactivity in different plant parts is determined by extraction of plant tissues with aqueous methanol and scintillation counting. The extent of metabolism of the ^14C-labelled GA compounds in planta is determined by HPLC analysis of plant extracts. The details are as follows.
The general extraction procedure consisted of blending the plant parts in a high speed polytron tissue homogenizer for 1-5 minutes with 10-20 ml of ice-cold methanol:water, 80:20, v/v, followed by vacuum filtration through a Whatman glass fiber filter. The filter cake is re-extracted as necessary using the procedure described above until an insignificant amount of radioactivity is removed. Prior to combining the extracts from each sample, aliquots are weighed and analyzed by liquid scintillation counting (LSC) to determine the amount of extracted radioactivity in each extract. Aliquots of the air-dried filter cakes are combusted and analyzed by LSC in order to determine the amount of non-extracted radioactivity. The extracts are combined and, when necessary, concentrated by rotary evaporation at a bath temperature of less than 35° C. to a small volume for analysis by HPLC to determine the extent of metabolism of the ^14C-labelled GA compounds in planta.

[5] = Heavy soil - Loose, target rate 1.0 μg/seed, Table 23
[6] = Heavy soil - Loose, target rate 10.0 μg/seed, Table 23
[7] = Heavy soil - Loose, target rate 40.0 μg/seed, Table 23
[8] = Heavy soil - compacted, target rate 1.0 μg/seed, Table 23
[9] = Heavy soil - compacted, target rate 10.0 μg/seed, Table 23
[10] = Heavy soil - compacted, target rate 40.0 μg/seed, Table 23
[11] = Heavy soil - loose, target rate 40.0 μg/seed, Table 22
[12] = Light soil - Compacted, target rate 40.0 μg/seed, Table 22
[13] = Light soil - Loose, target rate 1.0 μg/seed, Table 24
[14] = Light soil - Loose, target rate 10.0 μg/seed, Table 24
[15] = Light soil - Loose, target rate 40.0 μg/seed, Table 24
[16] = Light soil - compacted, target rate 1.0 μg/seed, Table 24
[17] = Light soil - compacted, target rate 10.0 μg/seed, Table 24
[18] = Light soil - compacted, target rate 40.0 μg/seed, Table 24

Structure (SMILES): C=C1C[C@]23C[C@H]1CC[C@H]2[C@]1(C)CCC[C@@](C)(C(=O)O)[C@H]1[C@@H]3C(=O)O [GA12]
- Count (emergence) [1, 5]: 36.0 ab
- Dwarfs (number of dwarfs not rescued) [1, 5]: 10.0 a
- Count (emergence) [1, 6]: 35.3 abc
- Dwarfs (number of dwarfs not rescued) [1, 6]: 7.0 b
- Count (emergence) [1, 7]: 35.3 abc
- Dwarfs (number of dwarfs not rescued) [1, 7]: 3.3 c
- Count (emergence) [1, 8]: 18.7 ab
- Dwarfs (number of dwarfs not rescued) [1, 8]: 4.0 a
- Count (emergence) [1, 9]: 13.0 b-e
- Dwarfs (number of dwarfs not rescued) [1, 9]: 2.0 b
- Count (emergence) [1, 10]: 22.7 a
- Dwarfs (number of dwarfs not rescued) [1, 10]: 1.3 bc
- Count (emergence) [1, 11]: 35 abc
- Dwarfs (number of dwarfs not rescued) [1, 11]: 3.3 c
- Count (emergence) [1, 12]: 42 a
- Dwarfs (number of dwarfs not rescued) [1, 12]: 3.7 bc
- Count (emergence) [1, 13]: 46.3 a
- Dwarfs (number not rescued) [1, 13]: 17.3 b
- Count (emergence) [1, 14]: 48.3 a
- Dwarfs (number not rescued) [1, 14]: 11.3 c
- Count (emergence) [1, 15]: 46.0 a
- Dwarfs (number not rescued) [1, 15]: 7.7
- Count (emergence) [1, 16]: 40.3 a
- Dwarfs (number not rescued) [1, 16]: 8.3 a
- Count (emergence) [1, 17]: 40.0 ab
- Dwarfs (number not rescued) [1, 17]: 4.3 b
- Count (emergence) [1, 18]: 42.0 a
- Dwarfs (number not rescued) [1, 18]: 3.7 bc
- rank of potential for rescuing GA-deficient dwarf soybeans without decreasing emergence ([1]; based on the last two field trials): GA9>GA5>GA3-3-acetate>GA3>GA12
- Significant Visual Observations on Line A3237 [2]: Short plants
- Count (emergence) [3, 5]: 36.0 a
- Height (total plant height) [3, 5]: 4.7e-15 g·cm
- Count (emergence) [3, 6]: 26.7 b-c
- Height (total plant height) [3, 6]: 4.0 g·cm
- Count (emergence) [3, 7]: 33.0 ab
- Height (total plant height) [3, 7]: 4.3 g·cm
- Count (emergence) [3, 8]: 17.0 a
- Height (total plant height) [3, 8]: 4.3 cde cm
- Count (emergence) [3, 9]: 12.3 abc
- Height (total plant height) [3, 9]: 3.7 e cm
- Count (emergence) [3, 10]: 13.7 abc
- Height (total plant height) [3, 10]: 4.0 de cm
- Count (emergence) [3, 11]: 33 ab
- Height (total plant height) [3, 11]: 4.3 g·cm
- Count (emergence) [3, 12]: 41 a
- Height (total plant height) [3, 12]: 4.3 g·cm
- Count (emergence) [3, 13]: 43.7 abc
- Height (total plant height) [3, 13]: 4.0 hi cm
- Count (emergence) [3, 14]: 47.7 a
- Height (total plant height) [3, 14]: 3.7 i cm
- Count (emergence) [3, 15]: 44.0 abc
- Height (total plant height) [3, 15]: 4.0 hi cm
- Count (emergence) [3, 16]: 39.3 ab
- Height (total plant height) [3, 16]: 4.3 g·cm
- Count (emergence) [3, 17]: 41.7 a
- Height (total plant height) [3, 17]: 4.0 g·cm
- Count (emergence) [3, 18]: 41.0 a
- Height (total plant height) [3, 18]: 4.3 g·cm
- plant height dose/response in wild-type line A4922 (FIG. 40) ([3]; ten days after planting, compacted soil): inhibited plant height
- ^14C Label Distribution (% of dose), Cotyledon ([4]; 3 DAP): 55 % of dose
- ^14C Label Distribution (% of dose), Hypocotyl ([4]; 3 DAP): 1.7 % of dose
- ^14C Label Distribution (% of dose), Root ([4]; 3 DAP): 3.5 % of dose
- ^14C Label Distribution (% of dose), Cotyledon ([4]; 12 DAP): 45 % of dose
- ^14C Label Distribution (% of dose), Epicotyl ([4]; 12 DAP): 0.2 % of dose
- ^14C Label Distribution (% of dose), Hypocotyl ([4]; 12 DAP): 0.9 % of dose
- ^14C Label Distribution (% of dose), Leaves ([4]; 12 DAP): 0.7 % of dose
- ^14C Label Distribution (% of dose), Root ([4]; 12 DAP): 3.0 % of dose
